# Key:
# MRSA ON184 = experiment: Checkerboard titration, FICI; type: cell-based, Staphylococcus aureus
# Experimental: (§1) A fourth composition and solution included tetrasodium EDTA with ethanol or chlorhexidine HCl. This fourth composition and solution were created using checkerboard titration methods using micro broth dilution in 96-well microtiter plates. The concentrations of antimicrobials used were based on previously determined MIC values. Briefly, 200 µL of two-fold dilutions of tetrasodium EDTA and ethanol or chlorhexidine HCl were prepared in MH or MH II broth with standardized cell suspension. […] Microtiter plates were incubated at 37° C. for 24 h, and the results were analyzed. Each test was performed in duplicate and included a growth control without adding any antimicrobials.
# S. epidermidis SK9 = experiment: Checkerboard titration, FMCI; type: cell-based, Staphylococcus epidermidis
# Experimental: (§2) An assay was made using a minimum inhibitory concentration (MIC) and minimum bactericidal concentration (MBC) and minimum fungicidal concentration (MFC) determination. The MIC was determined by the micro broth dilution method in 96-well plates. Serial two-fold dilutions of tetrasodium EDTA (from 2% to 0.015%), ethanol (from 50% to 0.1%) and chlorhexidine HCl (from 100 µg/mL to 0.025 µg/mL) were prepared in MH broth with a final volume of 90 µL per well. A 10 µL containing 1 × 10^5 bacterial cells or 2 × 10^3 fungal cells were added to each well. The inoculated plates were covered with a lid, sealed with Parafilm, and incubated for 24 h at 37° C. with slight rocking on a tilting platform shaker. After incubation, the optical density at 600 nm (OD 600 ) of the cultures in each well was measured using an xMark™ Microplate Absorbance Spectrophotometer (Bio-Rad). […] MBCs and MFCs were determined by transferring 100 µL from each well with no apparent growth onto appropriate agar plates, followed by incubation for 24 h at 37° C.
# as §1
# Candida albicans SK4b = experiment: Checkerboard titration, FMCI; type: cell-based; settings: C. albicans SK4b
# Experimental: as §2, §1
# Escherichia coli ON29 = experiment: Checkerboard titration, FMCI; type: cell-based; settings: E. coli ON29
# Experimental: as §2, §1
# Proteus mirabilis ON153 = experiment: Checkerboard titration, FMCI; type: cell-based; settings: P. mirabilis ON153
# Experimental: as §2, §1
# [1] = tested on: Pseudomonas aeruginosa SK1; experiment: Checkerboard titration, FMCI; type: cell-based; settings: P. aeruginosa SK1
# Experimental: as §2, §1
# Serratia marcescens SK2 = experiment: Checkerboard titration, FMCI; type: cell-based; settings: S. marcescens SK2
# Experimental: as §2, §1
# [2] = tested on: Staphylococcus aureus ON89; experiment: Checkerboard titration, FMCI; type: cell-based; settings: S. aureus ON89
# Experimental: as §2, §1
# [3] = tested on: Staphylococcus epidermidis ON170; experiment: Checkerboard titration, FMCI; type: cell-based; settings: S. epidermidis ON170
# Experimental: as §2, §1
# [4] = tested on: Stenotrophomonas maltophilia ON17; experiment: Checkerboard titration, FMCI; type: cell-based; settings: S. maltophilia ON17
# Experimental: as §2, §1
# E. coli SK2 = experiment: Checkerboard titration, FMCI; type: cell-based, Escherichia coli
# Experimental: as §2, §1
# C. albicans ON47 = experiment: Checkerboard titration, FMCI; type: cell-based, Candida albicans
# Experimental: as §2, §1
# [5] = tested on: Candida albicans SK4b biofilm; experiment: MBEC Assay, 48-h biofilm, 24 h exposure; type: cell-based; settings: C. albicans SK4b
# Experimental: (§3) A biofilm cultivation cell composition was provided. This fifth composition was created using an MBEC Assay® biofilm inoculator, consisting of a polystyrene lid with 96 downward-protruding pegs and a corresponding base used to grow biofilms. A standardized inoculum was diluted in an appropriate biofilm growth medium to achieve a viable cell count of 1.5 × 10^6 CFU/mL of bacterial cells or […] CFU/mL of fungal cells. Then, 150 µL of this inoculum was transferred into each appropriate well, and the peg lids were inserted into the microtiter plates. The plates were sealed with Parafilm and were incubated at optimum temperature for 48 h with slight rocking for bacteria and shaking at 200 rpm for fungal strains. After incubation, the peg lid was removed from the base and rinsed twice with sterile phosphate-buffered saline (PBS) for 2 min to remove loosely attached non-sessile cells. Before the antimicrobial challenge, the pegs in column 1 (n = 8) were considered the biofilm growth control; these pegs were removed from the lids, placed into 200 µL of recovery medium, and analyzed for starting biofilm cell numbers as described below. The rinsed pegs were placed into new 96-well plates containing two-fold dilutions of antimicrobials such as tetrasodium EDTA (4 %-0.0125%), ethanol (100%-0.2%), and chlorhexidine HCl (100 µg/mL-0.4 µg/mL) in 200 µL of suitable biofilm growth medium per well and incubated at optimum temperature for 24 h. After the antimicrobial challenge, the pegs were rinsed twice with sterile PBS for 2 min and placed into a new 96-well plate containing 200 µL of recovery medium. The recovery plates were sealed with Parafilm, and biofilm cells were dislodged from the pegs by sonication for 30 min with a Branson 3510 bath sonicator. The biofilm cells in the recovery medium were serially diluted, and a drop dilution assay was performed to enumerate the viable cells. MBEC values were determined as the minimum concentration of antimicrobials that yielded a viable cell count at or lower than the 125 CFU/mL detection limit.
# [6] = tested on: Escherichia coli SK2 biofilm; experiment: MBEC Assay, 48-h biofilm, 24 h exposure; type: cell-based; settings: E. coli SK2
# Experimental: as §3
# [7] = tested on: Proteus mirabilis ON153 biofilm; experiment: MBEC Assay, 48-h biofilm, 24 h exposure; type: cell-based; settings: P. mirabilis ON153
# Experimental: as §3
# [8] = tested on: Pseudomonas aeruginosa SK1 biofilm; experiment: MBEC Assay, 48-h biofilm, 24 h exposure; type: cell-based; settings: P. aeruginosa SK1
# Experimental: as §3
# [9] = tested on: Staphylococcus aureus ON89 biofilm; experiment: MBEC Assay, 48-h biofilm, 24 h exposure; type: cell-based; settings: S. aureus ON89
# Experimental: as §3
# [10] = tested on: Staphylococcus epidermidis SK9 biofilm; experiment: MBEC Assay, 48-h biofilm, 24 h exposure; type: cell-based; settings: S. epidermidis SK9
# Experimental: as §3
# [11] = tested on: Proteus mirabilis ON153 biofilm; experiment: FBEC index, checkerboard dilution on biofilms; type: cell-based; settings: P. mirabilis ON153 biofilm
# Experimental: In step (4), microtiter plates are incubated at 37° C. for 24 h. then (6), after incubation, the bacterial and fungal cells were dislodged from the pegs into the recovery medium described above.
# Three 10-µL aliquots, for a total of 30 µL from each well of recovery medium, were spotted on MH agar plates and incubated for 24 h at 37° C. […] The FBEC determination is a modification of the FICI.
# [12] = tetrasodium EDTA + chlorhexidine HCl
smiles,measurement,setting,value
"O=C([O-])CN(CCN(CC(=O)[O-])CC(=O)[O-])CC(=O)[O-].[Na+].[Na+].[Na+].[Na+] [EDTA, tetrasodium EDTA]",Concentration in combination giving FICI,MRSA ON184; [12],0.008 % w/v
same,Concentration in combination giving FICI,MRSA ON184; tetrasodium EDTA + ethanol,0.015 % w/v
same,Concentration in combination giving FMCI,S. epidermidis SK9; [12],0.008 % w/v
same,Concentration in combination giving FMCI,S. epidermidis SK9; tetrasodium EDTA + ethanol,0.031 % w/v
same,Concentration in combination giving FMCI,Candida albicans SK4b; [12],0.125 % w/v
same,Concentration in combination giving FMCI,Candida albicans SK4b; tetrasodium EDTA + ethanol,0.25 % w/v
same,Concentration in combination giving FMCI,Escherichia coli ON29; [12],0.008 % w/v
same,Concentration in combination giving FMCI,Escherichia coli ON29; tetrasodium EDTA + ethanol,0.25 % w/v
same,Concentration in combination giving FMCI,Proteus mirabilis ON153; [12],0.125 % w/v
same,Concentration in combination giving FMCI,Proteus mirabilis ON153; tetrasodium EDTA + ethanol,0.063 % w/v
same,Concentration in combination giving FMCI,[1]; [12],0.031 % w/v
same,Concentration in combination giving FMCI,[1]; tetrasodium EDTA + ethanol,0.031 % w/v
same,Concentration in combination giving FMCI,Serratia marcescens SK2; [12],0.125 % w/v
same,Concentration in combination giving FMCI,Serratia marcescens SK2; tetrasodium EDTA + ethanol,0.25 % w/v
same,Concentration in combination giving FMCI,[2]; [12],0.008 % w/v
same,Concentration in combination giving FMCI,[2]; tetrasodium EDTA + ethanol,0.25 % w/v
same,Concentration in combination giving FMCI,[3]; [12],0.25 % w/v
same,Concentration in combination giving FMCI,[3]; tetrasodium EDTA + ethanol,0.031 % w/v
same,Concentration in combination giving FMCI,[4]; [12],0.031 % w/v
same,Concentration in combination giving FMCI,[4]; tetrasodium EDTA + ethanol,0.125 % w/v
same,Concentration in combination giving FMCI,E. coli SK2; [12],0.015 % w/v
same,Concentration in combination giving FMCI,E. coli SK2; tetrasodium EDTA + ethanol,0.25 % w/v
same,Concentration in combination giving FMCI,C. albicans ON47; [12],0.031 % w/v
same,Concentration in combination giving FMCI,C. albicans ON47; tetrasodium EDTA + ethanol,0.25 % w/v
same,MBEC,[5],1 % w/v
same,MBEC,[6],2 % w/v
same,MBEC,[7],4 % w/v
same,MBEC,[8],4 % w/v
same,MBEC,[9],4 % w/v
same,MBEC,[10],2 % w/v
same,FBEC (concentration in combination),[11]; [12],0.125 % w/v
same,FBEC (concentration in combination),[11]; tetrasodium EDTA + ethanol,0.125 % w/v
